Test results from ChEMBL document CHEMBL1149475, “Evaluation of antitumor properties of novel saframycin analogs in vitro and in vivo” (Bioorg Med Chem Lett, 2006).

Columns and labels:
A549 = assay: Antiproliferative activity against human A549 cells; format: functional
DLD-1 = assay: Antiproliferative activity against human DLD1 cells; format: functional
HCT-116 [1] = assay: Antiproliferative activity against human HCT116 cells; format: functional
PC-3 = assay: Antiproliferative activity against human PC3 cells; format: functional
[2] = Bioavailability in Balb/C mouse at 0.5 mg/kg, iv and 2 mg/kg, ip; format: ADME, organism-based; settings: in vivo
[3] = Clearance in Balb/C mouse at 0.5 mg/kg, iv and 2 mg/kg, ip; format: ADME, organism-based; settings: in vivo
HeLa = assay: Antiproliferative activity against human HeLa-S3 cells; format: functional
A-375 = assay: Antiproliferative activity against human A375 cells; format: functional
BXPC-3 = assay: Antiproliferative activity against human BxPC3 cells; format: functional
DU-145 = assay: Antiproliferative activity against human DU145 cells; format: functional
CWR22R = assay: Antiproliferative activity against human CWR22Rv1 cells; format: functional; settings: 22Rv1
MDA-MB-231 = assay: Antiproliferative activity against human […] cells; format: functional
HT-29 = assay: Antiproliferative activity against human HT29 cells; format: functional
NCI-H1299 = assay: Antiproliferative activity against human H1299 cells; format: functional
[4] = Alpha half life in Balb/C mouse at 0.5 mg/kg, iv and 2 mg/kg, ip; format: ADME, organism-based; settings: in vivo
[5] = Cmax in Balb/C mouse at 0.5 mg/kg, iv and 2 mg/kg, ip; format: ADME, organism-based; settings: in vivo
NALM-6 = assay: Antiproliferative activity against human Nalm6 cells; format: functional
[6] = AUC in Balb/C mouse at 0.5 mg/kg, iv and 2 mg/kg, ip; format: ADME, organism-based; settings: plasma
[7] = Beta half life in Balb/C mouse at 0.5 mg/kg, iv and 2 mg/kg, ip; format: ADME, organism-based; settings: in vivo, read-out: beta t1/2
HT-1080 = assay: Antiproliferative activity against human HT1080 cells; format: functional
P12-Ichikawa = assay: Antiproliferative activity against human P12 cells; format: functional
Mus musculus [8] = assay: Toxicity in mouse at 2.5 mg/kg, ip assessed as loss of body weight; format: organism-based; parameters: dose 2.5 mg/kg, route intraperitoneal; settings: in vivo
HCT-116 [9] = assay: Antitumor activity against human HCT116 cells transplanted in mouse at 2.5 mg/kg, ip; format: functional; settings: HCT-116, ip, route intraperitoneal, read-out: TGI
Mus musculus [10] = assay: Toxicity in mouse at 1.25 mg/kg, ip assessed as loss of body weight; format: organism-based; parameters: dose 1.25 mg/kg, route intraperitoneal; settings: in vivo
HCT-116 [11] = assay: Antitumor activity against human HCT116 cells transplanted in mouse at 1.25 mg/kg, ip; format: functional; settings: HCT-116, ip, route intraperitoneal, read-out: TGI

`COc1c(C)c(OC)c2c(c1O)[C@@H]1[C@@H]3Cc4c(OC)c(C)c(OC)c(O)c4[C@H](CNC(=O)c4cc5cc(OCCN6CCOCC6)ccc5o4)N3[C@@H](C#N)[C@H](C2)N1C` gave a GI50 (A549) of 57.5 nM, a GI50 (DLD-1) of 22.4 nM and a GI50 (HCT-116 [1]) of 8.1 nM. It also gave a GI50 (PC-3) of 11.7 nM.
`COc1c(C)c(OC)c2c(c1O)[C@@H]1[C@@H]3Cc4c(OC)c(C)c(OC)c(O)c4[C@H](CNC(=O)c4ccc5ccccc5n4)N3[C@@H](C#N)[C@H](C2)N1C` showed a bioavailability [2] of 46%, a clearance [3] of 72 mL/min/kg and a GI50 (A549) of 10.7 nM. The GI50 (HeLa) was 6.6 nM, the GI50 (A-375) was 1.3 nM and the GI50 (BXPC-3) was 5.8 nM. The GI50 (DU-145) was 6.9 nM, the GI50 (DLD-1) was 8.1 nM and the GI50 (CWR22R) was 1.1 nM. For the same compound, the GI50 (MDA-MB-231) was 4.5 nM, the GI50 (HT-29) was 7.5 nM and the GI50 (NCI-H1299) was 6.2 nM. The GI50 (HCT-116 [1]) was 5.8 nM, the half-life [4] was 3.5 min and the Cmax [5] was 1100 nM. For the same compound, the GI50 (NALM-6) was 0.6 nM, the AUC [6] was 0.167 µM·h and the GI50 (PC-3) was 6.2 nM. For the same compound, the half-life [7] was 17 min, the GI50 (HT-1080) was 5 nM and the GI50 (P12-Ichikawa) was 1.9 nM.
With `COc1c(C)c(OC)c2c(c1O)[C@@H]1[C@@H]3Cc4c(OC)c(C)c(OC)c(O)c4[C@H](CNC(=O)c4cc5ccccc5o4)N3[C@@H](C#N)[C@H](C2)N1C` the GI50 (HCT-116 [1]) was 5.5 nM.
Compound `COc1c(C)c(OC)c2c(c1O)[C@@H]1[C@@H]3Cc4c(OC)c(C)c(OC)c(O)c4[C@H](CNC(=O)c4ccc(CNS(=O)(=O)c5cccc6c(N(C)C)cccc56)cc4)N3[C@@H](C#N)[C@H](C2)N1C` has a GI50 (HCT-116 [1]) of 201 nM.
Work on `COc1c(C)c(OC)c2c(c1O)[C@@H]1[C@@H]3Cc4c(OC)c(C)c(OC)c(O)c4[C@H](CNC(=O)c4cc5cc(OC6CCOCC6)ccc5o4)N3[C@@H](O)[C@H](C2)N1C` yielded a GI50 (A549) of 20.6 nM, a GI50 (DLD-1) of 10.4 nM and a GI50 (HCT-116 [1]) of 5.5 nM. It also gave a GI50 (PC-3) of 5 nM.
`COc1c(C)c(OC)c2c(c1O)[C@@H]1[C@@H]3Cc4c(OC)c(C)c(OC)c(O)c4[C@H](CNC(=O)c4cc5cc(OC6CCOCC6)ccc5o4)N3C[C@H](C2)N1C` gave a GI50 (HCT-116 [1]) of over 300 nM.
Compound `COc1c(C)c(OC)c2c(c1O)[C@@H]1[C@@H]3Cc4c(OC)c(C)c(OC)c(O)c4[C@H](CNC(=O)c4cc5cc(OC6CCOCC6)ccc5o4)N3[C@@H](C#N)[C@H](C2)N1C` has a bioavailability [2] of 38%, a clearance [3] of 45 mL/min/kg and a GI50 (A549) of 18.9 nM. For the same compound, the Activity (Mus musculus [8]) was “Active”, the inhibition in vivo at 2.5 mg/kg (HCT-116 [9]) was 96% and the GI50 (DLD-1) was 8.3 nM. For the same compound, the GI50 (HCT-116 [1]) was 3.2 nM, the half-life [4] was 3 min and the Cmax [5] was 3700 nM. It also gave an AUC [6] of 0.483 µM·h, a GI50 (PC-3) of 2.7 nM and a half-life [7] of 25 min. For the same compound, the Activity (Mus musculus [10]) was “Active” and the inhibition in vivo at 1.25 mg/kg (HCT-116 [11]) was 68%.
Work on `COC1=C(C)C(=O)C2=C(C1=O)[C@@H]1[C@@H]3CC4=C(C(=O)C(OC)=C(C)C4=O)[C@H](CNC(=O)c4cc5cc(OC6CCOCC6)ccc5o4)N3[C@@H](C#N)[C@H](C2)N1C` yielded a GI50 (DLD-1) of 26.5 nM, a GI50 (HCT-116 [1]) of 17.3 nM and a GI50 (PC-3) of 16.5 nM.
